Data from the NIST ThermoML archive (doi:10.1021/je700260f).

Settings: 313.15 K, Liquid, Vibrating tube method

FC(C(F)(F)F)C(F)(F)F [1,1,1,2,3,3,3-heptafluoropropane]
Settings	mass density [kg/m3]
20571 kPa	1453
20603 kPa	1453
20639 kPa	1453.2
20675 kPa	1453.5
20721 kPa	1453.6
20757 kPa	1453.8
20799 kPa	1454.1
20826 kPa	1454.2
20865 kPa	1454.4
20902 kPa	1454.4
20933 kPa	1454.7
20969 kPa	1454.7
21003 kPa	1454.9
21049 kPa	1455
21080 kPa	1455.2
21213 kPa	1455.8
21240 kPa	1455.9
21275 kPa	1456
21319 kPa	1456.3
21355 kPa	1456.5
21405 kPa	1456.7
21435 kPa	1456.8
21466 kPa	1456.9
21512 kPa	1457.1
21547 kPa	1457.2
21593 kPa	1457.5
21628 kPa	1457.6
21665 kPa	1457.8
21700 kPa	1457.8
21742 kPa	1458
21776 kPa	1458.2
21813 kPa	1458.3
21844 kPa	1458.5
21885 kPa	1458.7
21927 kPa	1458.9
21953 kPa	1459
21990 kPa	1459.2
22027 kPa	1459.2
22064 kPa	1459.5
22100 kPa	1459.6
22131 kPa	1459.8
22172 kPa	1459.9
22203 kPa	1460.1
22245 kPa	1460.1
22276 kPa	1460.2
22312 kPa	1460.6
22349 kPa	1460.5
22385 kPa	1460.8
22411 kPa	1460.8
22447 kPa	1461
22489 kPa	1461.3
22532 kPa	1461.4
22579 kPa	1461.6
22611 kPa	1461.7
22653 kPa	1461.9
22684 kPa	1462.2
22722 kPa	1462.2
22758 kPa	1462.5
22796 kPa	1462.5
22828 kPa	1462.7
22876 kPa	1462.9
22922 kPa	1463.1
22954 kPa	1463.3
22986 kPa	1463.2
23028 kPa	1463.7
23054 kPa	1463.7
23096 kPa	1463.7
23132 kPa	1464
23180 kPa	1464.2
23217 kPa	1464.3
23384 kPa	1465
23422 kPa	1465.2
23463 kPa	1465.3
23511 kPa	1465.4
23548 kPa	1465.7
23585 kPa	1465.8
23623 kPa	1466
23672 kPa	1466.2
23710 kPa	1466.2
23760 kPa	1466.5
23805 kPa	1466.6
23840 kPa	1466.9
23893 kPa	1467
23939 kPa	1467.2
23980 kPa	1467.2
24015 kPa	1467.5
24073 kPa	1467.7
24121 kPa	1467.8
24163 kPa	1468.1
24204 kPa	1468.4
24258 kPa	1468.6
24299 kPa	1468.7
24341 kPa	1468.9
24400 kPa	1469.2
24441 kPa	1469.3
24471 kPa	1469.4
24517 kPa	1469.5
24552 kPa	1469.6
24586 kPa	1469.7
24643 kPa	1470
24690 kPa	1470.3
24731 kPa	1470.4
24772 kPa	1470.6
24813 kPa	1470.8
24848 kPa	1470.8
24899 kPa	1471.1
24951 kPa	1471.3
24991 kPa	1471.5
25031 kPa	1471.7
25225 kPa	1472.4
25266 kPa	1472.5
25303 kPa	1472.6
25346 kPa	1472.9
25382 kPa	1473
25428 kPa	1473.2
25464 kPa	1473.3
27024 kPa	1479.1
27078 kPa	1479.5
27113 kPa	1479.5
27168 kPa	1479.8
27215 kPa	1479.9
27250 kPa	1480.2
27333 kPa	1480.4
27378 kPa	1480.4
27415 kPa	1480.8
27452 kPa	1480.9
27512 kPa	1481.1
27562 kPa	1481.4
27616 kPa	1481.6
27789 kPa	1482.1
27894 kPa	1482.6
27923 kPa	1482.7
27959 kPa	1482.7
27997 kPa	1482.8
28031 kPa	1483
28065 kPa	1483.1
28094 kPa	1483.2
28137 kPa	1483.5
28166 kPa	1483.6
28213 kPa	1483.6
28253 kPa	1483.8
28282 kPa	1484
28311 kPa	1484
28349 kPa	1484.3
28389 kPa	1484.3
28424 kPa	1484.5
28465 kPa	1484.6
28499 kPa	1484.8
28538 kPa	1484.9
28567 kPa	1485
28613 kPa	1485.2
28643 kPa	1485.2
28674 kPa	1485.3
28717 kPa	1485.6
28761 kPa	1485.7
29100 kPa	1487
29135 kPa	1487
29166 kPa	1487.2
29208 kPa	1487.3
29239 kPa	1487.5
29269 kPa	1487.5
29305 kPa	1487.6
29341 kPa	1487.9
29381 kPa	1487.9
29416 kPa	1488
29450 kPa	1488.1
29496 kPa	1488.3
29525 kPa	1488.6
29570 kPa	1488.6
29610 kPa	1488.7
31429 kPa	1495.1
31477 kPa	1495.4
31513 kPa	1495.4
31554 kPa	1495.6
31782 kPa	1496.5
31819 kPa	1496.4
31856 kPa	1496.6
31894 kPa	1496.7
31931 kPa	1496.9
31964 kPa	1497
32008 kPa	1497.3
32040 kPa	1497.3
32094 kPa	1497.4
32170 kPa	1497.7
32235 kPa	1497.9
32288 kPa	1498.1
32326 kPa	1498.2
32700 kPa	1499.5
33062 kPa	1500.7
33127 kPa	1500.8
33176 kPa	1501.1
33220 kPa	1501.2
33258 kPa	1501.4
33290 kPa	1501.5
33332 kPa	1501.7
33375 kPa	1501.7
33408 kPa	1501.8
33462 kPa	1501.9
33502 kPa	1502.1
33551 kPa	1502.5
33585 kPa	1502.3
33640 kPa	1502.6
33684 kPa	1502.6
33729 kPa	1502.8
33763 kPa	1503
33807 kPa	1503.2
